Reference: patent publication US7955852B2, “Expansion of renewable stem cell populations” (Gamida Cell Ltd., priority 2002, dated 2011)
Several values for one entry are separate records, joined by “and”; a condition that tells them apart may be missing. Equal entries are not always repeated.

Assays:
[1] = tested on: mononuclear cells; test: Ex-vivo expansion of whole mononuclear cell fraction (MNC) cultures; FACS of reselected CD34+ cells; type: cell-based, human; conditions: 10^−6 M + cytokines; for % CD34/Lin−: reselected CD34+ fraction, listed as RAR antagonist
Method: (§1) Human blood cells were obtained from umbilical cord blood from female patients following full-term, normal delivery (informed consent was obtained).
(§2) Samples were collected and processed within 12 hours postpartum. Blood was mixed with 3% Gelatin (Sigma, St. Louis, Mo.), sedimented for 30 minutes to remove most red blood cells. The leukocyte-rich fraction was harvested and layered on a Ficoll-Hypaque gradient (1.077 gram/ml; Sigma), and centrifuged at 400 g for 30 minutes. The mononuclear cell fraction in the interface layer was collected, washed three times and resuspended in phosphate-buffered saline (PBS) solution (Biological Industries) containing 0.5% bovine serum albumin (BSA, Fraction V; Sigma).
Alternatively, whole mononuclear fraction cells (MNC) were isolated, cultured and supplemented with cytokines, as above.
CD34^+ purified and whole MNC cultures were prepared and maintained as described above. AGN 194310 RAR antagonist was added to test cultures at concentrations ranging from 1×10^−3-1×10^−11 M [or 410 μg/l to 4.1×10^−5 μg/l]. The antagonist was added for a predetermined, limited period, for up to three weeks or continuously during the entire culture period.
(§3) CD34 surface expression on short and long-term cultures initiated either with purified CD34^+ cells or the entire MNC fraction was determined as follows: CD34^+ cells were positively reselected (Miltenyi kit) and counted. Purity was confirmed by subsequent FACS and cell morphology analysis.
(§4) Reselected CD34^+ cell subsets were stained for the following combination of antigens: CD34PE/CD38FITC and CD34PE/38, 33, 14, 15, 3, 4, 61, 19 (Lin) FITC. The fraction positive for CD34 and negative for CD38 was defined as CD34^+CD38^−. The fraction positive for CD34 and negative for LIN was defined as CD34^+Lin^− cell fraction.
Total cell counts, numbers of CD34^+ cells and subsets, and CFU numbers are presented as cumulative numbers, with the assumption that the cultures had not been passaged; i.e., the number of cells per ml were multiplied by the number of passages performed.

[2] = tested on: CD34+ cells; test: Ex-vivo expansion of CD34+ cell enriched cord blood cultures with cytokines; cell counts and FACS surface antigen analysis; type: cell-based, human; conditions: for No. of CD34+ cells: treated for one week only; for % 34+ cells / % 34+/38− cells / % 34+/Lin− cells / No. of cells (×10^4): two weeks after seeding, 4 cytokines
Method: as §1
as §2, with “The leukocyte-rich fraction was harvested and layered on a Ficoll-Hypaque gradient (1.077 gram/ml; Sigma), and centrifuged at 400 g for 30 minutes.” left out
To purify CD34^+ mononuclear cells, the fraction was subjected to two cycles of immuno-magnetic separation using the MiniMACS® or Clinimax® CD34 Progenitor Cell Isolation Kit (Miltenyi Biotec, Auburn, Calif.) as per manufacturer's recommendations.
CD34^+ expressing purified cells above were cultured in 24-well Costar Cell Culture Clusters (Corning Inc., Corning, N.Y.) or culture bags (American Fluoroseal Corp), at a concentration of 10^4 cells/ml in alpha medium (Biological Industries, Beit Haemek, Israel) supplemented with 10% fetal bovine serum (FBS, Biological Industries). The following human recombinant cytokines were added: Thrombopoietin (TPO), interleukin-6 (IL-6), FLT-3 ligand and stem cell factor (SCF), all at final concentrations of 50 ng/ml each, though occasionally IL-3, at a concentration of 20 ng/ml, was added either together or instead of SCF. For non-hematopoietic cell differentiation, FGF, EGF, NGF, VEGF, LIF or Hepatocyte growth factor (HGF) were used to supplement the growth medium, either alone or in various combinations. All cytokines used were purchased from Perpo Tech, Inc. (Rocky Hill, N.J.). The cultures were incubated at 37° C., 5% CO2, in a humidified atmosphere.
At weekly intervals, cell cultures were toped and semi-depopulated and were supplemented with fresh medium, serum and cytokines or supplemented with fresh growth medium, alone. At predetermined time points, cells were harvested, stained with trypan blue, counted, and cell morphology was determined via the use of cytospin (Shandon, UK)-prepared smears stained with May-Grunwald/Giemsa solutions.
CD34^+ purified and whole MNC cultures were prepared and maintained as described above. […] The antagonist was added for a predetermined, limited period, for up to three weeks or continuously during the entire culture period.
Cells were harvested, washed with a PBS solution containing 1% bovine sera albumin (BSA) and 0.1% sodium azide (Sigma), and stained at 4° C. for 60 minutes with fluorescein isothiocyanate or phycoerythrin-conjugated antibodies (all from Immunoquality Products, the Netherlands). The cells were then washed with the same buffer and analyzed by FACS caliber or Facstarplus flow cytometers. Cells were passed at a rate of 1000 cells/second, using saline as the sheath fluid. A 488 nm argon laser beam served as the light source for excitation. Emission of ten thousand cells was measured using logarithmic amplification, and analyzed using CellQuest software. Negative control staining of cells was accomplished with mouse IgG-PE (Dako A/S Glostrup, Denmark) and mouse IgG-FITC (BD Biosciences, Erembodegem, Belgium).
as §3, §4
FACS analysis results are given as percentage values of cells. Absolute numbers of subsets are calculated from the absolute number of CD34^+ cells.

[3] = 2 weeks expansion, re-selected CD34+ cell fraction (FIG. 2)

CCc1ccc(C2=CC(C)(C)Sc3ccc(C#Cc4ccc(C(=O)O)cc4)cc32)cc1 [AGN 194310, 4-[[4-(4-ethylphenyl)-2,2-dimethyl-(2H)-thiochroman-6-yl]-ethynyl]benzoic acid]
No of CD34+/Lin− × 10^4 (cumulative value) ([1]; 2 weeks): 132.5 × 10^4 | No of CD34 cells × 10^4 (cumulative value) ([1]; 2 weeks): 169 × 10^4 | % CD34/Lin− ([1]; 2 weeks): 78% and 78.4% | No of CD34+/Lin− × 10^4 (cumulative value) ([1]; 5 weeks): 237.8 × 10^4 | No of CD34 cells × 10^4 (cumulative value) ([1]; 5 weeks): 985 × 10^4 | % CD34/Lin− ([1]; 5 weeks): 24% and 24.1% | increase in CD34+CD38− surface expression [2, 3]: 1000 fold | increase in CD34+Lin− surface expression [2, 3]: 500 fold | No. of CD34+ cells ([2]; 10^−5 M, week 13): 10322 | No. of CD34+ cells ([2]; 10^−5 M, week 20): 0 | % 34+ cells ([2]; 10^−5 M): 18.94% | % 34+/38− cells ([2]; 10^−5 M): 17.14% | % 34+/Lin− cells ([2]; 10^−5 M): 15.18% | No. of cells (×10^4) ([2]; 10^−5 M): 42 ×10^4 | % 34+ cells ([2]; 10^−6 M): 19.59% | % 34+/38− cells ([2]; 10^−6 M): 17.16% | % 34+/Lin− cells ([2]; 10^−6 M): 11.91% | No. of cells (×10^4) ([2]; 10^−6 M): 52 ×10^4 | time post initial seeding until which cell proliferation was enabled ([2]; 10^−7 M or 0.41 microgram/liter (FIG. 4)): ≤ 11 weeks | activity on ex vivo expansion of stem/progenitor cells ([2]; 10^−7 M, along with IL-3, 3 and 5 weeks): moderate activity | increase in CD34+Lin− surface expression ([2]; after two weeks in culture, CD34+ re-selected fraction (FIG. 3C)): 530 fold | increase in CD34+ expression between week three to eleven ([2]; antagonist for the first three weeks only, then eight weeks without): 92 fold | expression of differentiation associated antigens CD33, CD14, CD15, CD4, CD3, CD19 and CD61 ([2]; two weeks, FACS (FIGS. 1A-C)): significantly inhibited | expression of the CD38 antigen ([2]; two weeks, FACS (FIGS. 1A-C)): completely abolished | expansion of CD34+ compartment since the initiation of the cultures ([2]; week 11, antagonist for the first three weeks only): 1621 fold | increase in CD34+Lin− expression ([2]; week eleven, 9 weeks after termination of antagonist treatment): 16,700 fold
